From patent US7365211B2, “Heterocyclic GABAA subtype selective receptor modulators” (Roche Palo Alto LLC, priority 2003, dated 2008) come the findings set out here.

The structures appear in SMILES notation. “And” between values parts separate entries of the source, which are not always exact repeats. Equal entries are not always repeated. Structures can show the parent of a compound that is named as a salt.

In one series the target is T1, GABAA α1β2γ2 (Homo sapiens, UniProt P14867+P18507+P47870).
T1 construct: expressed in transfected cells; host or cells: HEK293
The series can be described thus: 35S-TBPS binding assay (competition), HEK293 membranes with GABAA α1β2γ2 construct. The following applies: 35S-TBPS (5 nM) competition, GABA 1 μM, 2 hours at room temperature, read-out: pIC50 α1β2γ2 (converted). On the procedure: (§1) The binding assay is based on the assay reported by K. Gee et al., Eur. J. Pharmacol. 1987 136:419-423.
(§2) Homogenate preparation: Membrane preparations of HEK293 cells containing either GABAA α1β2γ2 or GABAA α2β3γ2 constructs were performed according to a modified procedure previously described by Gee et al. (supra). Whole HEK 293 cells in D-PBS (calcium/magnesium free) buffer adjusted to pH 7.4 were centrifuged at 7,280×g for 20 m. After discarding the supernatant, the pellet was resuspended in the buffer and centrifuged at 1,820×g for 10 m. Afterwards, the supernatant was discarded and the pellet resuspended in ice-cold preparation buffer (50 mM Tris HCl pH 7.4, 4° C. and 150 mM KCl), homogenized for 30 sec using a Brinkmann Polytron PT3000 (setting 6) and centrifuged at 48,000×g for 30 m at 4° C. The centrifugation and homogenization procedure was repeated two more times for a total of 3 times before resuspending the membranes at a final protein concentration of 0.5 mg/mL. Aliquots (30 mL) of the final membrane preparation were then centrifuged at 48,000×g for 30 m, and the resulting pellets were stored at −80° C. until required.
(§3) 35S-TBPS binding assay. Membrane pellets containing either GABAA α1β2γ2 or GABAA α2β3γ2 constructs were thawed on ice, resuspended in 10 mL of 50 mM Tris HCl pH 7.4, 4° C. and 150 mM KCl and centrifuged at 48,000×g, 30 m at 4° C. After discarding the supernatant, the pellet was resuspended in 30 mL incubation buffer (50 mM Tris HCl pH 7.4, 25° C. and 150 mM KCl) at approximately 0.5 mg/mL protein concentration. In ^35S-TBPS competition studies, HEK293 membranes were incubated with ^35S-TBPS (5 nM final) and GABA (1 μM) in the absence or presence of competitor at concentrations ranging from 0.01 nM to 10 μM in 125 μL incubation buffer for 2 hours at room temperature (˜22° C.). Non-specific binding was assayed with picrotoxin (100 μM final concentration). […] Measurement of bound radioactivity was performed using a Packard Microplate 96 well topcount scintillation counter. […]
In the case of `C=Cc1c2cccc(-c3ccc(Cl)cc3Cl)c2nn1C` [A17, 7-(2,4-Dichloro-phenyl)-2-methyl-3-vinyl-2H-indazole], the IC50 is 1170 nM.
The same measure, in the same setting: the same measure for `Cn1nc2c(-c3ccc(Cl)cc3Cl)cccc2c1Br` [A27, 3-Bromo-7-(2,4-dichloro-phenyl)-2-methyl-2H-indazole]: 575 nM; for `Cc1c2cccc(-c3ccc(Cl)cc3Cl)c2nn1C` [A14, 7-(2,4-Dichloro-phenyl)-2,3-dimethyl-2H-indazole; hydrochloride]: 295 nM.

The next series addresses T2, GABAA α2β3γ2 (Homo sapiens, UniProt P18507+P28472+P47869).
T2 construct: expressed in transfected cells; host or cells: HEK293
Put plainly: 35S-TBPS binding assay (competition), HEK293 membranes with GABAA α2β3γ2 construct. Conditions: 35S-TBPS (5 nM) competition, GABA 1 μM, 2 hours at room temperature, read-out: pIC50 α2β3γ2 (converted). The procedure:
as §1, §2, §3
As to `C=Cc1c2cccc(-c3ccc(Cl)cc3Cl)c2nn1C` [A17, 7-(2,4-Dichloro-phenyl)-2-methyl-3-vinyl-2H-indazole], the IC50 was 26.3 nM.
The same measure, in the same setting: the same measure for `Cn1nc2c(-c3ccc(Cl)cc3Cl)cccc2c1Br` [A27, 3-Bromo-7-(2,4-dichloro-phenyl)-2-methyl-2H-indazole]: 13.5 nM; for `Cc1c2cccc(-c3ccc(Cl)cc3Cl)c2nn1C` [A14, 7-(2,4-Dichloro-phenyl)-2,3-dimethyl-2H-indazole; hydrochloride]: 30.9 nM.

Test system in the next series: not given
Experiment: not given
Conditions: not given
Take `CC(=O)OCc1c2cccc(-c3ccc(Cl)cc3Cl)c2nn1C` [E5, Acetic acid [7-(2,4-dichloro-phenyl)-2-methyl-2H-indazol-3-yl]-methyl ester]: the melting point was in the range of 131.7 to 135.2 °C.
The same measure, in the same setting: the same measure for `Cn1nc2c(-c3ccc(Cl)cc3Cl)cccc2c1COC(N)=O`: 184 to 185.5 °C; for `COCc1c2cccc(-c3ccc(Cl)cc3Cl)c2nn1C` [E3, 7-(2,4-Dichloro-phenyl)-3-methoxymethyl-2-methyl-2H-indazole]: 119 to 120.9 °C.
With `CC(=O)N(C)Cc1c2cccc(-c3ccc(Cl)cc3Cl)c2nn1C.Cl`, the melting point was in the range of 146.2 to 147.8 °C.
Still for that read-out and setting: the same measure for `Cl.Cn1cc2cccc(-c3ccc(Cl)cc3Cl)c2n1`: 133 to 147 °C.
As for `CCCN(CCC)c1c2cccc(-c3ccc(Cl)cc3Cl)c2nn1C.Cl`, the melting point was in the range of 139 to 140 °C.
Same read-out and setting: the same measure for `CN(C)C(=O)NCc1c2cccc(-c3ccc(Cl)cc3Cl)c2nn1C` [C13, 3-[7-(2,4-Dichloro-phenyl)-2-methyl-2H-indazol-3-ylmethyl]-1,1-dimethyl-urea]: 101.9 to 105.1 °C; for `Cn1nc2c(-c3ccc(Cl)cc3Cl)cccc2c1CO` [E4]: 197.3 to 201.2 °C; for `Cn1nc2c(-c3ccc(Cl)cc3Cl)cccc2c1CNC(=O)N1CCOCC1` [C11, Morpholine-4-carboxylic acid [7-(2,4-dichloro-phenyl)-2-methyl-2H-indazol-3-ylmethyl]-amide]: 98.8 to 104.5 °C.
Compound `Cc1cc(C)c(-c2cccc3cn(C)nc23)c(C)c1` [A5, 2-Methyl-7-(2,4,6-trimethyl-phenyl)-2H-indazole] returned a melting point of 180 to 182 °C.
Still for that read-out and setting: for `Cn1nc2c(-c3ccc(Cl)cc3Cl)cccc2c1C#N` [A29, 7-(2,4-Dichloro-phenyl)-2-methyl-2H-indazole-3-carbonitrile] the value was 137 to 139 °C; for `C#Cc1c2cccc(-c3ccc(Cl)cc3Cl)c2nn1C` [A20, 7-(2,4-Dichloro-phenyl)-3-ethynyl-2-methyl-2H-indazole], 129.9 to 130.9 °C; for `Cn1nc2c(-c3ncc(Cl)cc3Cl)cccc2c1Br` [A32, 3-Bromo-7-(3,5-dichloro-pyridin-2-yl)-2-methyl-2H-indazole], 154.5 to 156.2 °C.
On the same count and under the same terms, the same measure for `Cn1nc2c(-c3ccc(Cl)cc3Cl)cccc2c1S(N)(=O)=O` [D3, 7-(2,4-Dichloro-phenyl)-2-methyl-2H-indazole-3-sulfonic acid amide]: 170.7 to 173.6 °C; for `C=Cc1c2cccc(-c3c(C)cc(C)cc3C)c2nn1C` [A18, 2-Methyl-7-(2,4,6-trimethyl-phenyl)-3-vinyl-2H-indazole]: 84.9 to 95.4 °C and 85 to 95 °C; for `Cn1nc2c(-c3ccc(Cl)cc3Cl)cccc2c1S(C)(=O)=O` [D-2, 3-Methanesulfonyl-2-methyl-7-(2,4-dichloro-phenyl)-2H-indazole]: 182.1 to 183.4 °C.
In turn, `Cc1cc(C)c(-c2cccc3c(C(C)O)n(C)nc23)c(C)c1` (stereo not drawn) [E1, 1-[2-Methyl-7-(2,4,6-trimethyl-phenyl)-2H-indazol-3-yl]-ethanol] registered a melting point of 246 to 247 °C.
Same read-out and setting: the same measure for `Cl.Cn1cc2ccnc(-c3ccc(Cl)cc3Cl)c2n1`: 190.9 to 195.5 °C.
Compound `CNCc1c2cccc(-c3ccc(Cl)cc3Cl)c2nn1C.Cl` gave a melting point of 211.1 to 213 °C.
Still for that read-out and setting: for `Cn1cc2cncc(-c3ccc(Cl)cc3Cl)c2n1` [A34, 7-(2,4-Dichloro-phenyl)-2-methyl-2H-pyrazolo[4,3-c]pyridine] the value was 153.9 to 155.3 °C.
On the same count and under the same terms, for `COC(=O)NCc1c2cccc(-c3ccc(Cl)cc3Cl)c2nn1C.Cl` the value was 146.3 to 148.6 °C; for `Cn1nc2c(-c3ccc(Cl)cc3Cl)cccc2c1S(=O)(=O)CCO` [D5, 2-[7-(2,4-Dichloro-phenyl)-2-methyl-2H-indazole-3-sulfonyl]-ethanol], 157.8 to 161.7 °C; for `CN(C)C(=O)Nc1c2cccc(-c3ccc(Cl)cc3Cl)c2nn1C` [C15, 3-[7-(2,4-Dichloro-phenyl)-2-methyl-2H-indazol-3-yl]-1,1-dimethyl-urea], 123.3 to 126.3 °C.
The same measure, in the same setting: for `Cn1cc2nccc(-c3ccc(Cl)cc3Cl)c2n1` [A35, 7-(2,4-Dichloro-phenyl)-2-methyl-2H-pyrazolo[4,3-b]pyridine] the value was 160.5 to 162.8 °C.
Turning to `Cn1nc2c(-c3ccc(Cl)cc3Cl)cccc2c1NS(C)(=O)=O` [D15, N-[7-(2,4-Dichloro-phenyl)-2-methyl-2H-indazol-3-yl]-methanesulfonamide], the melting point was 171.3 to 173.2 °C.
The same measure, in the same setting: for `CO/N=C\c1c2cccc(-c3ccc(Cl)cc3Cl)c2nn1C` [A22, 7-(2,4-Dichloro-phenyl)-2-methyl-2H-indazole-3-carbaldehyde O-methyl-oxime] the value was 159.2 to 160.5 °C.
On the same count and under the same terms, the same measure for `Cn1nc2c(-c3ccc(Cl)cc3Cl)cccc2c1Br` [A27, 3-Bromo-7-(2,4-dichloro-phenyl)-2-methyl-2H-indazole]: 137 to 139 °C; for `Cl.Cn1nc2c(-c3ccc(Cl)cc3Cl)cccc2c1CNN`: 172.5 to 176 °C.
Still for that read-out and setting: for `CC/C=C(\CCC)c1c2cccc(-c3ccc(Cl)cc3Cl)c2nn1C.Cl` the value was 148 to 150 °C; for `CN(C)C(=O)OCc1c2cccc(-c3ccc(Cl)cc3Cl)c2nn1C` [E6, Dimethyl-carbamic acid 7-(2,4-dichloro-phenyl)-2-methyl-2H-indazol-3-ylmethyl ester], 125.2 to 128 °C; for `Cc1cc(C)c(-c2cccc3c(N(C)C)n(C)nc23)c(C)c1.Cl`, 169.9 to 171.9 °C.
In turn, `Cc1cc(C#N)ccc1-c1cccc2cn(C)nc12` [A6, 3-Methyl-4-(2-methyl-2H-indazol-7-yl)-benzonitrile] yielded a melting point of 101 to 105 °C.
As to `COc1ccc(-c2cccc3c(N(C)C)n(C)nc23)c(C)c1.Cl`, the melting point was 166 to 167 °C.

A word on the melting point: it is the temperature of the solid-liquid transition.
